Data taken from patent US8822517B2, “Arylosulfonamides for the treatment of CNS diseases” (Adamed SP. Z O.O., priority 2010, dated 2014).

What was measured:
[1] = target: T1, serotonine transporter (SERT) receptor (Homo sapiens, UniProt P31645); assay: Binding assay SERT (h), [3H]imipramine, CHO cells; conditions: read-out: SERT [%]
T1 construct: expressed in transfected cells; host or cells: CHO cells
In short: (§1)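 At 1×10^−6 M, compounds were assessed for their effect on specific radioligand binding, computed as total less nonspecific binding (excess unlabelled ligand present).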

sigma σ receptor = assay: Binding assay σ (non-selective), [3H]DTG, rat cerebral cortex; conditions: percent inhibition of control specific binding; compounds tested at 1×10^−6 M
In short: as §1

adrenergic α1 receptor = assay: Binding assay α1 (non-selective), [3H]prazosin, rat cerebral cortex; conditions: percent inhibition of control specific binding; compounds tested at 1×10^−6 M
In short: as §1

muscarinic M3 receptor = target: T2, muscarinic M3 receptor (Homo sapiens, UniProt P20309); assay: Binding assay M3 (h), [3H]4-DAMP, CHO cells; conditions: read-out: M3 [%]
T2 construct: expressed in transfected cells; host or cells: CHO cells
T2 sequence (P20309 whole entry): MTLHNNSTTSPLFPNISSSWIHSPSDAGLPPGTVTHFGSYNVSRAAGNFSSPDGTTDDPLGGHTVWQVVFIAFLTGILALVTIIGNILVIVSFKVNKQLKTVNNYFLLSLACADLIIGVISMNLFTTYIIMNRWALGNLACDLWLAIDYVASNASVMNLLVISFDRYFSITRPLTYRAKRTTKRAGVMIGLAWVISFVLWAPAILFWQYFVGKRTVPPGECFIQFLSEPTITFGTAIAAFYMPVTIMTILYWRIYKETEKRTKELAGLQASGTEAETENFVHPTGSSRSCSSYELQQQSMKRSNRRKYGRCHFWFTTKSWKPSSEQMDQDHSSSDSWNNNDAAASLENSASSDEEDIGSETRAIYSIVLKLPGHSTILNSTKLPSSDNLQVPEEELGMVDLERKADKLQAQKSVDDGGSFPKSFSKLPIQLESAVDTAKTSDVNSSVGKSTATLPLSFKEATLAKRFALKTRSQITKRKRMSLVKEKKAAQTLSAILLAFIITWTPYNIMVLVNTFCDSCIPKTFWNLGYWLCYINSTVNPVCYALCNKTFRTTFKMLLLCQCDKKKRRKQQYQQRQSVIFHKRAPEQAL
In short: as §1

[2] = target: T3, serotoninergic receptor 5-HT2C (Homo sapiens, UniProt P28335); assay: Binding assay 5-HT2C (h), [3H]mesulergine, HEK-293 cells; conditions: read-out: 5-HT2C [%]
T3 construct: expressed in transfected cells; host or cells: HEK-293 cells
T3 sequence (P28335 33-458): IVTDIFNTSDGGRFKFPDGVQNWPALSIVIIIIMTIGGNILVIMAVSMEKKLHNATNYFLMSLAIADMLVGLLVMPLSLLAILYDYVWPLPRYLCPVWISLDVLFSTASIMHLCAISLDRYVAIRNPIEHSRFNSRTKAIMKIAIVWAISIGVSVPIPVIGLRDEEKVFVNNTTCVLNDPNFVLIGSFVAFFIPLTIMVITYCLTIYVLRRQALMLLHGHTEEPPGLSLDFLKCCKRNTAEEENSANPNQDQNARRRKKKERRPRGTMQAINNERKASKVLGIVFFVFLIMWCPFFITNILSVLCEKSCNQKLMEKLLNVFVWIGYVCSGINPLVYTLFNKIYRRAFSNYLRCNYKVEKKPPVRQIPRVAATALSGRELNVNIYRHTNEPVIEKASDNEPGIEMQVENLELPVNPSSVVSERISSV
In short: as §1

dopaminergic D3 receptor = dopaminergic D3 receptor (Homo sapiens, UniProt P35462); assay: Binding assay D3 (h), [3H]methyl-spiperone, CHO cells; parameters: expressed in transfected cells; host or cells: CHO cells; conditions: read-out: D3 [%]
dopaminergic D3 receptor, sequence (P35462 whole entry): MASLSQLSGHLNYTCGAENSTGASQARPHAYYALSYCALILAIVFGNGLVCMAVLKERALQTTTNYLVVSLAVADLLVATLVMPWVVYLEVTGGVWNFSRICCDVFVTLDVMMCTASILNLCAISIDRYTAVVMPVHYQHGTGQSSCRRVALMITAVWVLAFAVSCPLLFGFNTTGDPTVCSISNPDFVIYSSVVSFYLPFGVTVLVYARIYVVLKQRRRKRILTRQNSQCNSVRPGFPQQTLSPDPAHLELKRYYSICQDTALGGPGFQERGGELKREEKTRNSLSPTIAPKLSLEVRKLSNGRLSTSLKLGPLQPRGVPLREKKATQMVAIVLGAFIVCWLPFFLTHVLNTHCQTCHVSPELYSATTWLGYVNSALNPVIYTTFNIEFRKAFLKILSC
In short: as §1

[3] = target: serotoninergic 5-HT6 receptor (Homo sapiens, UniProt P50406); assay: Binding assay 5-HT6 (h), [3H]LSD, CHO cells; parameters: expressed in transfected cells; host or cells: CHO cells; conditions: read-out: 5-HT6
serotoninergic 5-HT6 receptor, sequence (P50406 whole entry): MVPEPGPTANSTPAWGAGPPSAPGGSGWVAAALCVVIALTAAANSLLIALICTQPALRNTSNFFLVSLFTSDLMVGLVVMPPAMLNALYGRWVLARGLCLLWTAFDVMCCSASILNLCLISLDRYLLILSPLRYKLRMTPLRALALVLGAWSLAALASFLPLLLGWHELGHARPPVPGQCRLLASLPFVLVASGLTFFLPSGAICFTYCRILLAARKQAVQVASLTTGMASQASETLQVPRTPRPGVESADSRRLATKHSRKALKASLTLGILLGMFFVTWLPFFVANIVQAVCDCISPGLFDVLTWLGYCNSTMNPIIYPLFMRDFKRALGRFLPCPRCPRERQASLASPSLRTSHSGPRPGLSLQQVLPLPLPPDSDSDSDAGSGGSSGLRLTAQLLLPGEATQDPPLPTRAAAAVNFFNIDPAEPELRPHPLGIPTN
In short: as §1

[4] = target: serotoninergic 5-HT7 receptor (Homo sapiens, UniProt P34969); assay: Binding assay 5-HT7 (h), [3H]LSD, CHO cells; parameters: expressed in transfected cells; host or cells: CHO cells; conditions: read-out: 5-HT7
serotoninergic 5-HT7 receptor, sequence (P34969 whole entry): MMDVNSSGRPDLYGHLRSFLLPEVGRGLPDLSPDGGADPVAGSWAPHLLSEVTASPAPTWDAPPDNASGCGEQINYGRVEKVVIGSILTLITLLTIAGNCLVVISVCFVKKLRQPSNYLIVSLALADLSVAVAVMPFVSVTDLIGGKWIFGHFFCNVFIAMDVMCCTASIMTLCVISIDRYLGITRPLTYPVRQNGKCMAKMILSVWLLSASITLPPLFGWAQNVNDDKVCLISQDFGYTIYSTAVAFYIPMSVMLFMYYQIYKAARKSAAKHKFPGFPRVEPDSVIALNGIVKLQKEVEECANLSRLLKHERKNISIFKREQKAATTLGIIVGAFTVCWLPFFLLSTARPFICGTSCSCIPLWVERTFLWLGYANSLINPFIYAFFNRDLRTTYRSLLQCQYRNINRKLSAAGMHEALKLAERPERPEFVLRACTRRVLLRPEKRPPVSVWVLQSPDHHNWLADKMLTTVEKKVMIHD
In short: as §1

adrenergic α2C receptor = target: T4, adrenergic α2C receptor (Homo sapiens, UniProt P18825); assay: Binding assay α2C (h), [3H]RX 821002, CHO cells; parameters: expressed in transfected cells; host or cells: CHO cells; conditions: read-out: α2C [%]
T4 sequence (P18825 1-462): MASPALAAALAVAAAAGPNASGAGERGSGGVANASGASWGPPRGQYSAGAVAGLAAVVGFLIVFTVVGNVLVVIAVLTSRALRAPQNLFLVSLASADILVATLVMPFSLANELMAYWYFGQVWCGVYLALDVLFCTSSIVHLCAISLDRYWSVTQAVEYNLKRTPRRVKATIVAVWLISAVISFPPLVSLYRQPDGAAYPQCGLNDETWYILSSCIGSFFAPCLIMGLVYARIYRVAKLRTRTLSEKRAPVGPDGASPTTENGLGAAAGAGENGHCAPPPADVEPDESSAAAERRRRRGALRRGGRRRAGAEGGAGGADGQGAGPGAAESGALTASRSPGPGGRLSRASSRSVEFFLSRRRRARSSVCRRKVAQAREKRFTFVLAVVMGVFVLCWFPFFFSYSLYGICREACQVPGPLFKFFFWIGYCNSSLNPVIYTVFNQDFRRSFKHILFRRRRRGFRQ
In short: as §1

dopaminergic D2 receptor = dopaminergic D2 receptor (Homo sapiens, UniProt P14416); assay: Binding assay D2S (h), [3H]methyl-spiperone, HEK-293 cells; parameters: expressed in transfected cells; host or cells: HEK-293 cells; conditions: read-out: D2 [%]
dopaminergic D2 receptor, sequence (P14416 1-414 isoform P14416-2): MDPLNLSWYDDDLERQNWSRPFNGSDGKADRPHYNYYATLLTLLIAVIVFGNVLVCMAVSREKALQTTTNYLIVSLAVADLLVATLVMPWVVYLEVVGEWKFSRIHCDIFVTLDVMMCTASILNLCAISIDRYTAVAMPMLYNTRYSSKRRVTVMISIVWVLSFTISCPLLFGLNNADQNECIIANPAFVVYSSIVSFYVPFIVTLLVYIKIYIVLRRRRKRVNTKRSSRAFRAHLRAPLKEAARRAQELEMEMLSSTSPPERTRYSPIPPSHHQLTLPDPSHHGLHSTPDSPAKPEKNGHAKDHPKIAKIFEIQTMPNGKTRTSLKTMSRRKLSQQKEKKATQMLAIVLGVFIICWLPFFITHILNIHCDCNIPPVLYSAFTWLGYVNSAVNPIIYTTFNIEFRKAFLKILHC
In short: as §1

[5] = target: T5, serotoninergic 5-HT1A receptor (Homo sapiens, UniProt P08908); assay: Binding assay 5-HT1A (h), [3H]8-OH-DPAT, HEK-293 cells; parameters: expressed in transfected cells; host or cells: HEK-293 cells; conditions: read-out: 5-HT1A
T5 sequence (P08908 1-422): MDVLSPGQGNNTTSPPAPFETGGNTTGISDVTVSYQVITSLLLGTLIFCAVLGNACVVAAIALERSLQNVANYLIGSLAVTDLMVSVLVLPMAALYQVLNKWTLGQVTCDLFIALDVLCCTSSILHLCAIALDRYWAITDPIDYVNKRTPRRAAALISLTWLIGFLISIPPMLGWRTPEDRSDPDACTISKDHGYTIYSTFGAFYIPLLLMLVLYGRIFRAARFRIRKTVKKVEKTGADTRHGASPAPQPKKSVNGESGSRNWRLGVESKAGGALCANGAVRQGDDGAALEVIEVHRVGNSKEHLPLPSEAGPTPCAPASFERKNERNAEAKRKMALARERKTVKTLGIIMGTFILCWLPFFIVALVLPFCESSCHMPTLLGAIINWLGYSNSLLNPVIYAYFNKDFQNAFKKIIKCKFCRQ
In short: as §1

[6] = target: serotoninergic 5-HT2A receptor (Homo sapiens, UniProt P28223); assay: Binding assay 5-HT2A (h), [3H]ketanserin, HEK-293 cells; parameters: expressed in transfected cells; host or cells: HEK-293 cells; conditions: read-out: 5-HT2A
serotoninergic 5-HT2A receptor, sequence (P28223 whole entry): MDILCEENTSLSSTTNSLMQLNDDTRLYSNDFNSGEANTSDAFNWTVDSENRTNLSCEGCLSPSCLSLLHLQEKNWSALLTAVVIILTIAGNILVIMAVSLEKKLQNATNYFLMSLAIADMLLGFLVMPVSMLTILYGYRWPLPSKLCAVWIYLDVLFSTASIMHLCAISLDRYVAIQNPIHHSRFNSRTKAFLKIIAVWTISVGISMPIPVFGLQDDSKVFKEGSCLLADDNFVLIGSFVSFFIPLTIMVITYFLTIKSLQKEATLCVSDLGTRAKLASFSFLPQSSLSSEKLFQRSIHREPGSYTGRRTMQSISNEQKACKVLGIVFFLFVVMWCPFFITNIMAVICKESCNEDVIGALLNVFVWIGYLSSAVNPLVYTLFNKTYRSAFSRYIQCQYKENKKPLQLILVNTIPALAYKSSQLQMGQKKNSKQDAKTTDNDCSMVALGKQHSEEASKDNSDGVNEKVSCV
In short: as §1

[7] = target: histaminergic H1 receptor (Homo sapiens, UniProt P35367); assay: Binding assay H1 (h), [3H]pyrilamine, HEK-293 cells; parameters: expressed in transfected cells; host or cells: HEK-293 cells; conditions: read-out: H1 [%]
histaminergic H1 receptor, sequence (P35367 whole entry): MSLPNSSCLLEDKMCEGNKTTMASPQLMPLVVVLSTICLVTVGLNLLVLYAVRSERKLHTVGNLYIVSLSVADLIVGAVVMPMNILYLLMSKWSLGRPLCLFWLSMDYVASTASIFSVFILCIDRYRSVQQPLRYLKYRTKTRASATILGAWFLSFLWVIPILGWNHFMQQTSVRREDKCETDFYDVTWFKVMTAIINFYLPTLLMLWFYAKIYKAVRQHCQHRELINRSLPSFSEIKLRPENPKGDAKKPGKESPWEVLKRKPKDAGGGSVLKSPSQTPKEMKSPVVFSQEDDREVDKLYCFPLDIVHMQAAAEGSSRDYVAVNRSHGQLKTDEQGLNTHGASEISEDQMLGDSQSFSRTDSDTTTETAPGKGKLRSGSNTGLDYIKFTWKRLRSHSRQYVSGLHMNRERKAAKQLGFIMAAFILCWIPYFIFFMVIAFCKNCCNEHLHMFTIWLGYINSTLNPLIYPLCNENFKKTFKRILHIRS
In short: as §1

T1 sequence (P31645 whole entry): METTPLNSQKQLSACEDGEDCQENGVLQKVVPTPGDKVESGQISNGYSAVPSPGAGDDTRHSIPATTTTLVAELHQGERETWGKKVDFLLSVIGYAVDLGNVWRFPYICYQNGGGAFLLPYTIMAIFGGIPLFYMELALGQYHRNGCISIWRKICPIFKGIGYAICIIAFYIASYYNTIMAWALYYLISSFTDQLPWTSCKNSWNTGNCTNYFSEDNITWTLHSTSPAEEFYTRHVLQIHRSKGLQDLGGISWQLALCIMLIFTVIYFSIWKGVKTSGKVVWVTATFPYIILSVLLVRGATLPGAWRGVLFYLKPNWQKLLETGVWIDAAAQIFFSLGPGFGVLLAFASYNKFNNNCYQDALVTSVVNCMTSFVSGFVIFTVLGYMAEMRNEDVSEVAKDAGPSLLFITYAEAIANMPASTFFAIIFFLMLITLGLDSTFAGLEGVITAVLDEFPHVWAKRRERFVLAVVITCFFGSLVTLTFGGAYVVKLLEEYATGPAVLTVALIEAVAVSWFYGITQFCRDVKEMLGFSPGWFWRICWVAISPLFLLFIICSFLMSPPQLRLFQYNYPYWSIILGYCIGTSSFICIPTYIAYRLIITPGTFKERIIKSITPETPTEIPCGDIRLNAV

## O=S(=O)(NCCCCN1CCC(c2noc3cc(F)ccc23)CC1)c1ccc2c(c1)OCCO2 [Compound 321, N-[4-[4-(6-Fluoro-1,2-benzoxazol-3-yl)piperidin-1-yl]butyl]-2,3-dihydro-1,4-benzodioxine-6-sulphonamide]
[1]
  inhibition at 1 µM: 61%
Sigma σ receptor
  σ [%]: 74%
Adrenergic α1 receptor
  α1 [%]: 98%
Muscarinic M3 receptor
  inhibition at 1 µM: 14%
[2]
  inhibition at 1 µM: 65%
Dopaminergic D3 receptor
  inhibition at 1 µM: 98%
[3]
  inhibition at 1 µM: 89%
[4]
  inhibition at 1 µM: 100%
Adrenergic α2C receptor
  inhibition at 1 µM: 100%
Dopaminergic D2 receptor
  inhibition at 1 µM: 98%
[5]
  inhibition at 1 µM: 78%
[6]
  inhibition at 1 µM: 100%
[7]
  inhibition at 1 µM: 95%

## O=S(=O)(NCCCCN1CCC(c2noc3cc(F)ccc23)CC1)c1cccs1 [Compound 325, N-[4-[4-(6-Fluoro-1,2-benzoxazol-3-yl)piperidin-1-yl]butyl]thiophene-2-sulphonamide]
[1]
  inhibition at 1 µM: 20%
Sigma σ receptor
  σ [%]: 85%
Adrenergic α1 receptor
  α1 [%]: 95%
Muscarinic M3 receptor
  inhibition at 1 µM: 26%
[2]
  inhibition at 1 µM: 49%
Dopaminergic D3 receptor
  inhibition at 1 µM: 95%
[3]
  inhibition at 1 µM: 72%
[4]
  inhibition at 1 µM: 98%
Adrenergic α2C receptor
  inhibition at 1 µM: 93%
Dopaminergic D2 receptor
  inhibition at 1 µM: 96%
[5]
  inhibition at 1 µM: 62%
[6]
  inhibition at 1 µM: 102%
[7]
  inhibition at 1 µM: 83%

## O=S(=O)(NCCCN1CCC(c2noc3cc(F)ccc23)CC1)c1cnc2ccccn12 [Compound 356, N-[3-[4-(6-Fluoro-1,2-benzoxazol-3-yl)piperidin-1-yl]propyl]imidazo[1,2-a]pyridine-3-sulphonamide]
[1]
  inhibition at 1 µM: 11%
Sigma σ receptor
  σ [%]: 70%
Adrenergic α1 receptor
  α1 [%]: 101%
Muscarinic M3 receptor
  inhibition at 1 µM: 2%
[2]
  inhibition at 1 µM: 83%
Dopaminergic D3 receptor
  inhibition at 1 µM: 96%
[3]
  inhibition at 1 µM: 78%
[4]
  inhibition at 1 µM: 99%
Adrenergic α2C receptor
  inhibition at 1 µM: 96%
Dopaminergic D2 receptor
  inhibition at 1 µM: 98%
[5]
  inhibition at 1 µM: 95%
[6]
  inhibition at 1 µM: 99%
[7]
  inhibition at 1 µM: 80%

## O=S(=O)(NCCCN1CCC(c2noc3cc(F)ccc23)CC1)c1cc2cccnc2[nH]1 [Compound 357, N-[3-[4-(6-Fluoro-1,2-benzoxazol-3-yl)piperidin-1-yl]propyl]-1H-pyrrolo[2,3-b]pyridine-2-sulphonamide]
[1]
  inhibition at 1 µM: 41%
Sigma σ receptor
  σ [%]: 64%
Adrenergic α1 receptor
  α1 [%]: 99%
Muscarinic M3 receptor
  inhibition at 1 µM: 25%
[2]
  inhibition at 1 µM: 83%
Dopaminergic D3 receptor
  inhibition at 1 µM: 94%
[3]
  inhibition at 1 µM: 94%
[4]
  inhibition at 1 µM: 99%
Adrenergic α2C receptor
  inhibition at 1 µM: 94%
Dopaminergic D2 receptor
  inhibition at 1 µM: 99%
[5]
  inhibition at 1 µM: 63%
[6]
  inhibition at 1 µM: 101%
[7]
  inhibition at 1 µM: 84%

## O=c1[nH]c2cccc(N3CCN(CCCCNS(=O)(=O)c4cccc5ccccc45)CC3)c2[nH]1 [Compound 418, N-[4-[4-(2-oxo-1,3-dihydrobenzimidazol-4-yl)piperazin-1-yl]butyl]naphthalene-1-sulphonamide]
[1]
  inhibition at 1 µM: 5%
Sigma σ receptor
  σ [%]: 6%
Adrenergic α1 receptor
  α1 [%]: 98%
Muscarinic M3 receptor
  inhibition at 1 µM: 4%
[2]
  inhibition at 1 µM: 19%
Dopaminergic D3 receptor
  inhibition at 1 µM: 99%
[3]
  inhibition at 1 µM: 5%
[4]
  inhibition at 1 µM: 89%
Adrenergic α2C receptor
  inhibition at 1 µM: 94%
Dopaminergic D2 receptor
  inhibition at 1 µM: 97%
[5]
  inhibition at 1 µM: 98%
[6]
  inhibition at 1 µM: 36%
[7]
  inhibition at 1 µM: 55%

## O=c1[nH]c2cccc(N3CCN(CCCCNS(=O)(=O)c4ccc5ccccc5c4)CC3)c2[nH]1 [Compound 419, N-[4-[4-(2-oxo-1,3-dihydrobenzimidazol-4-yl)piperazin-1-yl]butyl]naphthalene-2-sulphonamide]
[1]
  inhibition at 1 µM: -21%
Sigma σ receptor
  σ [%]: −14%
Adrenergic α1 receptor
  α1 [%]: 86%
Muscarinic M3 receptor
  inhibition at 1 µM: -8%
[2]
  inhibition at 1 µM: 7%
Dopaminergic D3 receptor
  inhibition at 1 µM: 97%
[3]
  inhibition at 1 µM: 12%
[4]
  inhibition at 1 µM: 86%
Adrenergic α2C receptor
  inhibition at 1 µM: 93%
Dopaminergic D2 receptor
  inhibition at 1 µM: 93%
[5]
  inhibition at 1 µM: 98%
[6]
  inhibition at 1 µM: 52%
[7]
  inhibition at 1 µM: 12%
